According to US12415819B2, “Cu- and Ni-catalyzed decarboxylative borylation reactions” (The Scripps Research Institute, priority 2017, dated 2025):
Several values for one entry are separate records, joined by “and”; a condition that tells them apart may be missing. Equal entries are not always repeated. Where two headings read alike, the source gives them in different places.

How the values were obtained:
[1] = target: elastase in CF patient sputum (Homo sapiens (Human), UniProt P08246); assay: Elastase inhibition assay in CF patient sputum; type: biochemical; conditions: for IC50 / LipE: CF sputum; for inhibitory activity in patient sputum versus purified HNE (in words): sputum samples of CF and COPD patients
Experimental: (§1) Serially diluted compounds in DMSO were dispensed into a 384-well black opaque plate by Echo dispenser. 0.1 μg/mL human neutrophil elastase (EPC, Catalog# SE563, Owensville, Ms.) or human sputum diluted with assay buffer (100 mM HEPES, 500 mM NaCl, 0.02% Tween 20) was added into the 384-well plate, and was incubated with different compounds at different concentrations for 30 minutes at room temperature. The final concentration of DMSO in the reaction was 0.1%. Elastase substrate MeOSuc-AAPV-AMC (Bachem, Catalog #I-1270, Torrance, CA) of 100 μM final concentration was then added into the reaction system just before enzyme kinetics were read on PheraSTAR plate reader at excitation of 380 nm and emission of 460 nm with a 3-minutes interval for 30 minutes in total. Slope of fluorescence intensity vs. time representing the Vmax of enzyme activity was calculated with MARS software. % relative inhibition was calculated as: […]
(§2) IC50 was calculated based on the % relative inhibition curve using log(agonist) vs. response (three parameters) method with Prism software. All experiments were performed in triplicate for at least three independent times.
Human sputum was purchased from Discovery Life Sciences (Los Osos, CA). Human sputum was diluted 1:10 in volume with assay buffer (100 mM HEPES, 500 mM NaCl, 0.02% Tween 20) followed by vigorous vortexing. The 1:10 diluted human sputum was further diluted into 1:30, 1:90, 1:270, 1:810, and 1:2430. The elastase concentration was determined by elastase inhibition assay as described above. Specifically, a series of standards of human neutrophil elastase (starting at 2 μg/mL and further diluted 1:2 in volume) were prepared in the assay buffer. The samples and standards were plated in a 384-well black solid bottom plate; the substrate MeOSuc-AAPV-AMC of 100 μM final concentration was then added into the reaction system just before enzyme kinetics were read on PheraSTAR plate reader as mentioned above. The slope of enzymatic kinetic reading was calculated by MARS software. The elastase levels of the human sputum were calculated based on the standard curve.

[2] = target: human neutrophil elastase (Homo sapiens (Human), UniProt P08246); assay: Elastase inhibition assay, purified human neutrophil elastase; type: biochemical; conditions: for LipE: Purified NHE; for IC50: purified HNE, read-out: IC50
Experimental: as §1, with “Elastase substrate MeOSuc-AAPV-AMC (Bachem, Catalog #I-1270, Torrance, CA) of 100 μM final concentration was then added into the reaction system just before enzyme kinetics were read on PheraSTAR plate reader at excitation of 380 nm and emission of 460 nm with a 3-minutes interval for 30 minutes in total.” left out
as §2

Kinetic Solubility Test = type: physicochemical; conditions: for solubility kinetic at 24 h: aqueous buffer, kinetic from dmso stock, phosphate buffer pH 6.8, 24 h; for Kinetic solubility (pH 6.8): summary table
Experimental: The stock solution of each compound (10 μL; 10 mM in DMSO) was diluted with phosphate buffer solution (490 μL; 50 mM, pH 6.8). The resulting mixture was shaken for 24 h. Samples were then filtered.

Plasma Stability Assay = type: in vitro ADME, mouse; conditions: for % Remaining (mean): CD-1 Mouse Plasma; for portion intact in CD-1 mouse plasma: over 2 hours; for CD-1 Mouse Plasma % Remaining @ 2 hr: summary table
Experimental: Propantheline was used as the reference compound in this assay; all stock solutions were stored at −40° C. before use. • 2) Test system: CD-1 Mouse Plasma from a minimum of 20 male individuals were obtained from BioreclamationlVT (Catalog #: […]2-M; Batch #: MSE244515). EDTA-K2 was used as the anticoagulant. Procedure:
The frozen plasma was thawed in a water bath at 37° C. prior to the experiments. The plasma was centrifuged at 4000 rpm for 5 min and the clots were removed if necessary.
The pH was adjusted to 7.4±0.1 as necessary. An intermediate solution (1 mM) was prepared and a 100 μM dosing solution was prepared by diluting 10 μL of the intermediate solution with 90 μL 45% MeOH/H2O. Duplicate of test samples were made by mixing 98 μL of blank plasma with 2 μL of dosing solution (100 μM) to achieve the final concentration of 2 μM. Samples were incubated at 37° C. At each time point (0, 10, 30, 60, and 120 min), 400 μL of stop solution (consisting of 200 ng/mL tolbutamide and 20 ng/mL buspirone in 50% MeOH/CH3CN) was added to precipitate protein under thorough mixing. The sample plates were then centrifuged at 4,000 rpm for 10 min. An aliquot of supernatant (100 μL) was transferred from each well and mixed with 200 of μL ultrapure water. The samples were shaken at 800 rpm for about 10 min before LC-MS/MS analysis.
Data analysis: The % remaining of test compound after incubation in plasma was calculated using following equation: Remaining=100×(PAR at Tn/PAR at T0) where PAR is the peak area ratio of analyte versus internal standard (IS) and The appointed incubation time points are T0 (0 min), Tn (n=0, 10, 30, 60, 120 min).
LC-MS/MS condition: Each compound was analyzed by LC/MS using an ACE 5-phenyl 50×2.1 mm column (Part No. ACE-125-0502) with 0.1% formic acid in water and 0.1% formic acid in acetonitrile as the mobile phases. Tobultamide was used as the internal standard. Data collected were processed by Analyst 1.6.2 software and MultiQuant 3.0.2 software.

Chain of human neutrophil elastase (P08246 30-247): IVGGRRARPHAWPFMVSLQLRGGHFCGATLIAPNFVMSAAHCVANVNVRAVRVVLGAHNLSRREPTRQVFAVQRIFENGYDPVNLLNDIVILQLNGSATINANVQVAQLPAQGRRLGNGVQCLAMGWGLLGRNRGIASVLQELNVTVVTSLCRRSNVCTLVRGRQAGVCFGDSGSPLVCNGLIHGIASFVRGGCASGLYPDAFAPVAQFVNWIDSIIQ
Chain of elastase in CF patient sputum (P08246 30-267): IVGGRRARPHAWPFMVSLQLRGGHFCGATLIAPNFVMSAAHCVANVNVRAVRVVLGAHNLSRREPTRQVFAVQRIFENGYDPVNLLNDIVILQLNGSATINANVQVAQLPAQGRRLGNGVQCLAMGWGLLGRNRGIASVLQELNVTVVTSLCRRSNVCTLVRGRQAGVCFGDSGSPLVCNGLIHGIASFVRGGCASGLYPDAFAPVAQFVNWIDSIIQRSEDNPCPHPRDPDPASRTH

Structure (SMILES)	IC50 [1] [nM]	LipE [1]	inhibitory activity in patient sputum versus purified HNE (in words) [1]	inhibitory activity against HNE (in words) [2]	LipE [2]	inhibitory activity against HNE (in words) ([2]; listed as mCBK 320)	IC50 [2] [nM]	solubility kinetic at 24 h (Kinetic Solubility Test)	Kinetic solubility (pH 6.8) (Kinetic Solubility Test) [μm]	% Remaining (mean) (Plasma Stability Assay; 0 min, 2 μM, 37° C.) [%]	% Remaining (mean) (Plasma Stability Assay; 10 min) [%]	% Remaining (mean) (Plasma Stability Assay; 30 min) [%]	% Remaining (mean) (Plasma Stability Assay; 60 min) [%]	% Remaining (mean) (Plasma Stability Assay; 120 min) [%]	portion intact in CD-1 mouse plasma (Plasma Stability Assay) [%]	CD-1 Mouse Plasma % Remaining @ 2 hr (Plasma Stability Assay) [%]
CC(C)[C@H](NC(=O)[C@@H]1CCCN1C(=O)[C@@H](NC(=O)c1ccc(C(=O)NS(=O)(=O)c2ccc(Cl)cc2)cc1)C(C)C)B(O)O [Compound 51, (1-((S)-1-((4-(((4-chlorophenyl)sulfonyl)carbamoyl)benzoyl)-L-valyl)pyrrolidine-2-carboxamido)-2-methylpropyl)boronic acid]	0.096 ± 0.002	6.83	retained much of their inhibitory activities	substantially enhanced potency	7.33	highly potent	0.03	> 127 µg/mL and > 200 µM	>200	100.0	90.0	79.4	84.1	90.3	90	90.3
CC(C)[C@H](NC(=O)[C@@H]1CCCN1C(=O)[C@@H](NC(=O)c1ccc(C(=O)NCC(=O)O)cc1)C(C)C)B(O)O [Compound 52, (4-(((2S)-1-((2S)-2-((1-borono-2-methylpropyl)carbamoyl)pyrrolidin-1-yl)-3-methyl-1-oxobutan-2-yl)carbamoyl)benzoyl)glycine]	0.043 ± 0.002	9.62	retained much of their inhibitory activities	–	10.1	–	0.015	> 104 µg/mL and > 200 µM	>200	100.0	116.1	104.8	96.4	79.2	79	79.2
